Assay results: paper PMC7180452, “Purine and Purine Isostere Derivatives of Ferrocene: An Evaluation of ADME, Antitumor and Electrochemical Properties” (Molecules, 2020)

Legend:
[1] = Chrom logD determination (fast-gradient HPLC); details: pH 7.4
Description: The distribution coefficient Chrom logD, a parameter used to assess the lipophilicity of compounds [36, 37], was determined for novel purine and purine isosteres with a ferrocene motif as shown in Table 1.
The distribution coefficient, Chrom logD, was determined from compounds’ gradient retention times by employing a high-performance liquid chromatography method with fast acetonitrile gradient. Compounds were prepared for analysis in final concentration of 1.25 mM by dilution of 10 mM stock solutions in DMSO with acetonitrile. Aqueous mobile phase was 50 mM ammonium acetate adjusted with ammonia solution to pH 7.4 and the organic mobile phase was acetonitrile. A reversed phase HPLC column Luna C18, 50 × 3 mm i.d., 5 µm particle size (Phenomenex, Torrance, CA, USA) was used for analysis. Sample injection volume was 2 µL and the flow rate was 1 mL min^−1. All compounds were analysed in duplicates. Fast-gradient elution was as follows: from 0 to 100% of acetonitrile (0−3 min), 100% of acetonitrile (3.0−3.5 min), from 100 to 0% of acetonitrile (3.5−3.7 min), and re-equilibration with 100% of aqueous mobile phase (3.7−5.0 min). All measurements were performed on an HPLC-DAD instrument Agilent 1100 Series (Agilent Technologies, Santa Clara, CA, USA) coupled with a mass spectrometer Micromass Quattro API (Waters, MA, USA). MassLynx software, version 4.1 (Waters, Manchester, UK) was used for data acquisition and processing. Before compound analysis, a calibration step was performed. A set of standard compounds with literature CHI values [36] were plotted against gradient retention times to obtain a calibration equation, which was used to determine CHI value from the compounds’ retention times.

[2] = test system: hepatocellular carcinoma (HepG2); test: In vitro antiproliferative activity, HepG2; assay type: cell-based, human; details: HepG2 cells
Description: (§1) Antiproliferative activity of compounds 11a−11c, 12a−12c, 13a−13c, 14a−14c, 15a−15c, 16a, 23a−23c, 24a−24c, 25a−25c, 34a−34c and 35a−35c was evaluated in vitro on four human tumor cell lines (American Type Culture Collection, Manassas, VA, USA): metastatic colorectal adenocarcinoma (SW620), ductal pancreatic adenocarcinoma (CFPAC-1), hepatocellular carcinoma (HepG2) and cervical carcinoma (HeLa) as well as normal skin fibroblasts (HFF).

[3] = test system: normal skin fibroblasts (HFF); test: Cytotoxicity on non-tumor cells, HFF; assay type: cell-based, human
Description: as §1

[4] = Turbidimetric kinetic solubility assay; details: PBS, 1% DMSO, 37 °C, 2 h, estimated range
Description: The turbidimetric solubility assay, which allows a rapid determination of the kinetic solubility of newly synthesized compounds using small amounts of their DMSO solutions, was used to assess the kinetic solubility [38].
The compounds’ DMSO stock solutions in concentration of 10 mM were serially diluted by factor 3.3×, 3×, 3.3× and 3× in DMSO. Prepared solutions were spiked into phosphate-buffered saline (PBS, 100 mM) to obtain final compounds’ concentrations of 100, 30, 10, 3 and 1 µM (3 µL of prepared dilutions were spiked to 297 µL of PBS, with final DMSO content of 1%, v/v). All compounds were tested in two replicas per concentration. Prepared solutions were incubated at 37 °C for 2 h with gentle shaking. Blank solutions were also prepared by spiking DMSO in PBS buffer (1% of DMSO, v/v). […] Compound/control samples are compared to the blank solution. […] Results were expressed as an estimated solubility range (lower and upper bound).

[5] = test system: cervical carcinoma (HeLa); test: In vitro antiproliferative activity, HeLa; assay type: cell-based, human; details: HeLa cells
Description: as §1

[6] = test system: metastatic colorectal adenocarcinoma (SW620); test: In vitro antiproliferative activity, SW620; assay type: cell-based, human; details: SW620 cells
Description: as §1

[7] = test system: ductal pancreatic adenocarcinoma (CFPAC-1); test: In vitro antiproliferative activity, CFPAC-1; assay type: cell-based, human; details: CFPAC-1 cells
Description: as §1

| SMILES | Chrom logD [1] | IC50 [2] [µM] | IC50 [3] [µM] | Kinetic Solubility [4] [µM] | IC50 [5] [µM] | IC50 [6] [µM] | IC50 [7] [µM] |
| --- | --- | --- | --- | --- | --- | --- | --- |
| [Fe+2].c1cc[c-](-c2cn(CCn3ccc4c(N5CCCC5)ncnc43)nn2)c1.c1cc[cH-]c1 [Compound 34b, 4-(Pyrrolidin-1-yl)-7-[2-(4-ferrocenyl-1,2,3-triazol-1-yl)ethyl]-7H-pyrrolo[2,3-d]pyrimidine] | 4.30 | > 100 | > 100 | 10 to 30 | > 100 | > 100 | > 100 |
| [Fe+2].c1cc[c-](-c2cn(CCn3cnc4c(N5CCCCC5)ncnc43)nn2)c1.c1cc[cH-]c1 [Compound 35c, 6-(Piperidin-1-yl)-9-[2-(4-ferrocenyl-1,2,3-triazol-1-yl)ethyl]-9H-purine] | 5.02 | > 100 | 6.83 ± 2.17 | 10 to 30 | > 100 | > 100 | > 100 |
| Clc1ncnc2ncn(Cc3cn(-[c-]4cccc4)nn3)c12.[Fe+2].c1cc[cH-]c1 [Compound 15c, 6-Chloro-7-[1-(1-ferrocenyl-1,2,3-triazol-1-yl)methyl]-7H-purine] | 3.68 | 81.7 ± 17.1 | 29.6 ± 4.28 | >100 | 69.2 ± 25.5 | 45.5 ± 4.52 | 72.2 ± 13.7 |
| Nc1ncnc2c1ncn2Cc1cn(C[c-]2cccc2)nn1.[Fe+2].c1cc[cH-]c1 [Compound 12a, 6-Amino-9-[1-(1-ferrocenymethyl-1,2,3-triazol-4-yl)methyl]-9H-purine] | 2.85 | > 100 | 56.6 ± 15.6 | 30 to 100 | > 100 | > 100 | > 100 |
| Nc1nc(Cl)c2ncn(Cc3cn(-[c-]4cccc4)nn3)c2n1.[Fe+2].c1cc[cH-]c1 [Compound 14c, 2-Amino-6-chloro-9-[1-(1-ferrocenyl-1,2,3-triazol-1-yl)methyl]-9H-purine] | 3.50 | > 100 | 24.6 ± 4.45 | <1 | > 100 | 81.3 ± 1.23 | 90.5 ± 1.83 |
| CC([c-]1cccc1)n1cc(Cn2cnc3c(Cl)nc(N)nc32)nn1.[Fe+2].c1cc[cH-]c1 (stereo not shown) [Compound 14b, 2-Amino-6-chloro-9-[1-(1-ferrocenyl-1-methylmethyl-1,2,3-triazol-4-yl)methyl]-9H-purine] | 3.90 | 77.1 ± 5.92 | 11.5 ± 5.09 | 30 to 100 | > 100 | 98.7 ± 19.7 | 67.4 ± 9.12 |
| Nc1nc(Cl)c2c(ncn2Cc2cn(C[c-]3cccc3)nn2)n1.[Fe+2].c1cc[cH-]c1 [Compound 16a, 2-Amino-6-chloro-7-[1-(1-ferrocenymethyl-1,2,3-triazol-4-yl)methyl]-7H-purine] | 3.37 | > 100 | 5.3 ± 5.36 | <1 | > 100 | > 100 | > 100 |
| Clc1ncnc2c1ncn2Cc1cn(-[c-]2cccc2)nn1.[Fe+2].c1cc[cH-]c1 [Compound 13c, 6-Chloro-9-[1-(1-ferrocenyl-1,2,3-triazol-1-yl)methyl]-9H-purine] | 4.19 | 54.7 ± 3.21 | 6.77 ± 2.78 | >100 | 46.8 ± 6.72 | 51.8 ± 1.9 | 54.7 ± 5.13 |
| CC([c-]1cccc1)n1cc(Cn2cnc3c(N)ncnc32)nn1.[Fe+2].c1cc[cH-]c1 (stereo not shown) [Compound 12b, 6-Amino-9-[1-(1-ferrocenyl-1-methylmethyl-1,2,3-triazol-4-yl)methyl]-9H-purine] | 3.09 | 68.6 ± 9.15 | 18.4 ± 2.64 | >100 | 76.4 ± 3.41 | 75 ± 8.93 | 70.2 ± 6.5 |
| Nc1nc(Cl)c2ncn(Cc3cn(C[c-]4cccc4)nn3)c2n1.[Fe+2].c1cc[cH-]c1 [Compound 14a, 2-Amino-6-chloro-9-[1-(1-ferrocenymethyl-1,2,3-triazol-4-yl)methyl]-9H-purine] | 3.62 | 60.1 ± 5.73 | > 100 | 30 to 100 | 71.4 ± 16.1 | 60.2 ± 24.4 | 49.5 ± 5.03 |
| [Fe+2].c1cc[c-](-c2cn(CCn3ccc4c(N5CCCCC5)ncnc43)nn2)c1.c1cc[cH-]c1 [Compound 34c, 4-(Piperidin-1-yl)-7-[2-(4-ferrocenyl-1,2,3-triazol-1-yl)ethyl]-7H-pyrrolo[2,3-d]pyrimidine] | 5.49 | 57.6 ± 13.8 | 20.2 ± 1.54 | 10 to 30 | 71.1 ± 15.9 | 57.6 ± 6.55 | 45.8 ± 9.11 |
| Nc1ncnc2c1ncn2Cc1cn(-[c-]2cccc2)nn1.[Fe+2].c1cc[cH-]c1 [Compound 12c, 6-Amino-9-[1-(1-ferrocenyl-1,2,3-triazol-1-yl)methyl]-9H-purine] | 2.64 | > 100 | 54.5 ± 4.96 | 3 to 10 | > 100 | > 100 | > 100 |
| Clc1ncnc2c1ncn2CCn1cc(-[c-]2cccc2)nn1.[Fe+2].c1cc[cH-]c1 [Compound 35a, 6-Chloro-9-[2-(4-ferrocenyl-1,2,3-triazol-1-yl)ethyl]-9H-purine] | 3.70 | 48.1 ± 7.85 | 6 ± 2.99 | 10 to 30 | 63 ± 6.06 | 78.2 ± 5.69 | 65.3 ± 6.23 |
| Clc1ncnc2c1ccn2CCn1cc(-[c-]2cccc2)nn1.[Fe+2].c1cc[cH-]c1 [Compound 34a, 4-Chloro-7-(2-(4-ferrocenyl-1,2,3-triazol-1-yl)ethyl)-7H-pyrrolo[2,3-d]pyrimidine] | 4.92 | > 100 | > 100 | 10 to 30 | > 100 | > 100 | > 100 |
| CC([c-]1cccc1)n1cc(Cn2cnc3c(Cl)ncnc32)nn1.[Fe+2].c1cc[cH-]c1 (stereo not shown) [Compound 13b, 6-Chloro-9-[1-(1-ferrocenyl-1-methylmethyl-1,2,3-triazol-4-yl)methyl]-9H-purine] | 4.64 | 38.8 ± 10.1 | 6.79 ± 1.06 | 30 to 100 | 40.3 ± 4.52 | 36.6 ± 3.42 | 43.8 ± 10.9 |
| [Fe+2].c1cc[c-](-c2cn(CCn3cnc4c(N5CCCC5)ncnc43)nn2)c1.c1cc[cH-]c1 [Compound 35b, 6-(Pyrrolidin-1-yl)-9-[2-(4-ferrocenyl-1,2,3-triazol-1-yl)ethyl]-9H-purine] | 3.58 | > 100 | > 100 | 30 to 100 | > 100 | > 100 | > 100 |
